The text below walks through data of US8697691B2, “Alkyl 3-((2-amidoethyl)amino)-8-azabicyclo[3.2.1]octane-8-carboxylate analogs as selective M1 agonists and methods of making and using same” (Vanderbilt University, priority 2009, dated 2014).

Like-named read-outs stand apart in the source and are kept apart here.

Common to all, as to type: cell-based
One assay concerns the target hM2 receptor (Homo sapiens, UniProt P08172). Kind of assay: Calcium mobilization assay, CHO cells stably expressing hM2-Gqi5. The text has this: (§1) Chinese hamster ovary (CHO-K1) cells stably expressing rat (r)M1 were purchased from the American Type Culture Collection and cultured according to their indicated protocol. CHO cells stably expressing human (h)M2, hM3, and hM5 were described previously (Levey et al., 1991); hM1 and hM4 cDNAs were purchased from Missouri S&T cDNA Resource; rM4 cDNA was provided by T. I. Bonner (National Institutes of Health, Bethesda, Md.). hM1, hM4, and rM4 cDNAs were used to stably transfect CHO-K1 cells purchased from the American Type Culture Collection using Lipofectamine2000. […]
(§2) For low throughput measurement of agonist-evoked increases in intracellular calcium, CHO-K1 cells stably expressing muscarinic receptors were plated in 100 μL of growth medium at 5×10^4 (rM1, hM3, and hM5) or 6×10^4 cells per well (rM1 Y381A, hM2, and rM4) in Costar 96-well black-walled, tissue culture (TC)-treated, clear-bottom plates (Fisher). […] For calcium fluorescence measurements, CRCs of compounds (50 μl, 2×) were added 19 s after the beginning of data collection via a Flexstation II (Molecular Devices, Sunnyvale, Calif.). Fluorescence imaging continued for a total of 130 s acquisition time using an excitation wavelength of 488 nm, an emission wavelength of 525 nm, and a cutoff wavelength of 515 nm. […]
In general terms: A change in cytosolic calcium serves as a functional read-out for many receptors and channels.

For another assay, the target named is T1, hM3 receptor (Homo sapiens, UniProt P20309).
T1 construct: expressed in transfected cells; host or cells: CHO cells (Levey et al., 1991)
T1 sequence (P20309 whole entry): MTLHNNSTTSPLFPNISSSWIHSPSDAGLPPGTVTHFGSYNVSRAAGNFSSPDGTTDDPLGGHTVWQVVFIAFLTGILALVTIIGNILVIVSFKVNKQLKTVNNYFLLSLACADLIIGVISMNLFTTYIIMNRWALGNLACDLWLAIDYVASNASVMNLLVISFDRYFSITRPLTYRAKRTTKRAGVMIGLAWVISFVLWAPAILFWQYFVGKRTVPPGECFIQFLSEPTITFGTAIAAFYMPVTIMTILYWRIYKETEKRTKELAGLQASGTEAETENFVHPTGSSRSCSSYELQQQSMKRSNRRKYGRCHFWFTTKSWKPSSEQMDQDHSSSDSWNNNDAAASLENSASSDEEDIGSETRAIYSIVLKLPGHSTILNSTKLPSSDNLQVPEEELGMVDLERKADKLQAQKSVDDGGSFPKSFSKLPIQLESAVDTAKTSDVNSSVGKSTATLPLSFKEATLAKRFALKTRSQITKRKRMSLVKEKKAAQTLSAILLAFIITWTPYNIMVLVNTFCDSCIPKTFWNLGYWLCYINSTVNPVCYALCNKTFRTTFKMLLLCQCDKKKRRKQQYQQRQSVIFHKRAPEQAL
Nature of the assay: Calcium mobilization assay, CHO cells stably expressing hM3.
Text: as §1, §2

The next assay concerns the target T2, human M1 receptor (Homo sapiens, UniProt P11229).
T2 construct: host or cells: CHO-K1
T2 sequence (P11229 1-460): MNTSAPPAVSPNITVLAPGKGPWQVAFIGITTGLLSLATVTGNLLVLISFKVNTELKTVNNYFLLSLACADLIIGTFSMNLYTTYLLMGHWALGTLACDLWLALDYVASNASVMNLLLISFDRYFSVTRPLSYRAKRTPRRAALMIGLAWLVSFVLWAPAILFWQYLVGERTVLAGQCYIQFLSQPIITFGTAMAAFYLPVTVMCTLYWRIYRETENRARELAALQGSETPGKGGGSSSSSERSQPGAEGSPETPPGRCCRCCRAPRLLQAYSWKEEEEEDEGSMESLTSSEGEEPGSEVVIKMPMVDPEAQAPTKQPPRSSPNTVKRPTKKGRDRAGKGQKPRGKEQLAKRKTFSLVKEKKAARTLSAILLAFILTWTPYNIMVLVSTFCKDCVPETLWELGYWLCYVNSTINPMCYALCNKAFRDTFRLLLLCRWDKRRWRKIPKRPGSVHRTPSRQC
Nature of the assay: Calcium mobilization assay, CHO-K1 cells stably expressing hM1 (high throughput, FDSS 6000). The conditions noted are these: for Emax: CHO-K1, read-out: Efficacy (% Max ACh). An excerpt:
Chinese hamster ovary (CHO-K1) cells stably expressing rat (r)M1 were purchased from the American Type Culture Collection and cultured according to their indicated protocol. CHO cells stably expressing human (h)M2, hM3, and hM5 were described previously (Levey et al., 1991); hM1 and hM4 cDNAs were purchased from Missouri S&T cDNA Resource; rM4 cDNA was provided by T. I. Bonner (National Institutes of Health, Bethesda, Md.). hM1, hM4, and rM4 cDNAs were used to stably transfect CHO-K1 cells purchased from the American Type Culture Collection using Lipofectamine2000. To make stable hM2, hM4 and rM4 cell lines for use in calcium mobilization assays, these cells also were stably transfected with a chimeric G-protein (Gqi5) (provided by B. R. Conklin, University of California, San Francisco) using Lipofectamine 2000. rM1, hM3, and hM5 cells were grown in Ham's F-12 medium containing 10% heat-inactivated fetal bovine serum (FBS), 20 mM HEPES, and 50 μg/mL G418 sulfate. hM2-Gqi5 and hM4-Gqi5 cells were grown in the same medium also containing 500 μg/mL Hygromycin B. Stable rM4-Gqi5 cells were grown in DMEM containing 10% heat-inactivated FBS, 20 mM HEPES, 400 μg/mL G418 sulfate, and 500 μg/mL Hygromycin B. The rat M1 Y381A orthosteric mutant receptor cDNA was generated using the Quik-Change site-directed mutagenesis kit (Stratagene) and verified by sequencing. CHO-K1 cells were stably transfected with this cDNA using Lipofectamine2000 and screened for expression based on calcium mobilization in response to the allosteric M1 agonist N-desmethylclozapine.
For high throughput measurement of agonist-evoked increases in intracellular calcium, CHO-K1 cells stably expressing muscarinic receptors were plated in growth medium lacking G418 and hygromycin at 15,000 cells/20 μL/well (hM1, hM2-Gqi5, hM3, hM4-Gq15, and hM5) in Greiner 384-well black-walled, tissue culture (TC)-treated, clear-bottom plates (VWR). Cells were incubated overnight at 37° C. and 5% CO2. The next day, cells were washed using an ELX 405 (BioTek) with three washes (50 μL) of assay buffer then aspirated to 15 μL. Next, 5 μL of 8 μM Fluo-4/acetoxymethyl ester (Invitrogen, Carlsbad, Calif.) prepared as a 2.3 mM stock in DMSO and mixed in a 1:1 ratio with 10% (w/v) Pluronic F-127 and diluted in assay buffer was added to the wells and the cell plates were incubated for 45 min at 37° C. and 5% CO2. Dye was removed by washing with the ELX 405 (three 50 μL washes of assay buffer) then aspirated to 20 μL. Agonist and compound master plates were formatted in an 11 point CRC format (1:3 dilutions) in 100% DMSO with a starting concentration of 10 mM using the BRAVO liquid handler (Agilent). Test compound CRCs were then transferred to daughter plates ([…]) using the Echo acoustic plate reformatter (Labcyte, Sunnyvale, Calif.) and then diluted into assay buffer (40 μL) to a 2× stock using a Thermo Fisher Combi (Thermo Fisher Scientific, Waltham, Mass.). Calcium flux was measured using the Functional Drug Screening System (FDSS) 6000 (Hamamatsu Corporation, Tokyo, Japan) as an increase in the fluorescent static ratio. 20 μL of Agonist Compounds were applied to cells using the automated system of the FDSS 6000 at 4 s into the 300 s protocol and the data were collected at 1 Hz. Concentration-response curves were generated using a four-parameter logistical equation in XLfit curve fitting software (IDBS, Bridgewater, N.J.) for Excel (Microsoft, Redmond, Wash.) or Prism (GraphPad Software, Inc., San Diego, Calif.).

Sequence of hM2 receptor (P08172 whole entry): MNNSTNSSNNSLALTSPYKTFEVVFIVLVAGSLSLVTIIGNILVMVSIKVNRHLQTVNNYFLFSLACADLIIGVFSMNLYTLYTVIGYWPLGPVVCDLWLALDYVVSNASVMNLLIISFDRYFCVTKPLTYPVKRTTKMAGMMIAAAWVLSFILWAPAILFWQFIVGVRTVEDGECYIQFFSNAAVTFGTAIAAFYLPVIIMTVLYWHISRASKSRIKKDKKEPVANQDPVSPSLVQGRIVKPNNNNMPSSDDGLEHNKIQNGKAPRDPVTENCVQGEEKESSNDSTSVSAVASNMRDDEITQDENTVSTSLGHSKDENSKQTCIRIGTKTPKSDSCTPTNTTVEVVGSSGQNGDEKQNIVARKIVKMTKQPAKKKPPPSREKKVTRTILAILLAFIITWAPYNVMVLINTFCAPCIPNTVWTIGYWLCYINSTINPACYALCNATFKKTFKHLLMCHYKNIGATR

Turning to `CCOC(=O)N1[C@@H]2CC[C@H]1C[C@H](NCCNC(=O)c1ccccc1)C2` [Example 26, ethyl 3-((3-exo)-(2-benzamidoethyl)amino)-8-azabicyclo[3.2.1]octane-8-carboxylate], the EC50 at hM2 receptor was greater than 10000 nM; at hM3 receptor it was greater than 10000 nM; on human M1 receptor (figure legends FIG. 1.0, 1.1, dose response data, read-out: EC50 for hM1) it was 1200 nM. For the same compound, the Emax on human M1 receptor came to 57%.

`CCOC(=O)N1[C@@H]2CC[C@H]1C[C@@H](NCCNC(=O)c1ccccc1)C2` [Example 27, ethyl 3-((3-endo)-(2-benzamidoethyl)amino)-8-azabicyclo[3.2.1]octane-8-carboxylate]: the EC50 on hM2 receptor is roughly 3000 nM; at hM3 receptor it was roughly 10000 nM; on human M1 receptor, 214 nM; at human M1 receptor (human M1, agonist-evoked calcium mobilization in CHO-K1 cells, read-out: Potency (EC50)), 210 nM. Moreover, at human M1 receptor, the Emax was 37%.

Usually EC50 stands for the concentration needed to bring the measured effect to its halfway point.
